# Measured values as given in patent US12629348B2, “Method and composition for treating osteoarthritis” (Vireo Systems, Inc., priority 2013, dated 2026).
# Tests used:
# [1] = Standard blood chemistry profile of OA canines for trial period; type: in vivo, canine; settings: 36 mg/kg/day oral
# Method: The double-blind study was performed on a total of 30 adult canines of various breeds in five different private practice clinics. Owner consent was obtained prior to participation in the study. Each clinic was responsible for enrolling 6 canines into the study. Inclusion criteria for the study consisted of clinical assessment and radiograph confirmation of OA in at least one joint and a score of 22 or greater on the Helsinki chronic pain index (“HCPI”). Use of NSAIDs or other dietary supplements for OA were allowed, provided the current treatment regimens had not been altered for a period of at least three months. A randomized block design was used with canines assigned in a one to one ratio into either placebo (36 mg/kg/day maltose-dextran; Vireo Resources, Plattsmouth, NE) or Alpha-GEE (36 mg/kg/day; Vireo Resources, Plattsmouth, NE) treatment group. The block size was six canines, corresponding to the total number of canines enrolled from each clinic. Group assignments for each canine were blinded to both the owners and attending veterinarian until all the data was collected and reported. Both Alpha-GEE and placebo were provided in 400 mg capsules and owners were instructed on the proper method for daily oral administration of capsules to their canines and provided with the appropriate number of capsules for the duration of the 2-week study. Blood samples were taken at both the start and conclusion of the two-week trial period to monitor for changes in blood chemistry as well as potential changes in inflammatory markers as described below. Owners completed the HCPI prior to starting the study, one-week after starting the study, and a final time at the conclusion of the study at two-weeks.
# In addition to the standard blood chemistry profile, blood samples taken before and at the conclusion of the two-week trial period were analyzed for PGE2 and SAA. Blood samples were collected in heparin tubes for PGE2 and in serum collection tubes for SAA. Both plasma and serum samples were centrifuged at 2000×g for 10 minutes and the plasma and serum supernatants removed and frozen at […] until analyzed for PGE2 and SAA using enzyme-linked immunosorbent assays ([…]). Of the 30 canines enrolled, 8 were excluded from the blood analysis portion of the study due to sampling/storage issues resulting in a lack of a pre- or post-trial sample. As PGE2 is rapidly metabolized in plasma, measurement of PGE2 metabolites is the most reliable method for assessing plasma levels of PGE2. Plasma samples were analyzed for PGE2 using the bicycle PGE2 competitive EIA kit purchased from Cayman Chemical (Ann Arbor, MI). The assay converts PGE2 metabolites into a stable derivative that is measured using EIA. Samples (100 μl) were analyzed in triplicate and PGE2 concentrations determined by use of standard curve. For SAA measurements, a solid phase sandwich EIA kit (Tridelta Development Ltd, Maytooth, Co Kildare, Ireland) was used as described previously.
# cyclooxygenase-1 (COX-1) = cyclooxygenase-1 (COX-1) (Homo sapiens, UniProt P23219); experiment: Inhibition of cyclooxygenase-1 activity
# Sequence of cyclooxygenase-1 (COX-1) (P23219 24-599, species assumed): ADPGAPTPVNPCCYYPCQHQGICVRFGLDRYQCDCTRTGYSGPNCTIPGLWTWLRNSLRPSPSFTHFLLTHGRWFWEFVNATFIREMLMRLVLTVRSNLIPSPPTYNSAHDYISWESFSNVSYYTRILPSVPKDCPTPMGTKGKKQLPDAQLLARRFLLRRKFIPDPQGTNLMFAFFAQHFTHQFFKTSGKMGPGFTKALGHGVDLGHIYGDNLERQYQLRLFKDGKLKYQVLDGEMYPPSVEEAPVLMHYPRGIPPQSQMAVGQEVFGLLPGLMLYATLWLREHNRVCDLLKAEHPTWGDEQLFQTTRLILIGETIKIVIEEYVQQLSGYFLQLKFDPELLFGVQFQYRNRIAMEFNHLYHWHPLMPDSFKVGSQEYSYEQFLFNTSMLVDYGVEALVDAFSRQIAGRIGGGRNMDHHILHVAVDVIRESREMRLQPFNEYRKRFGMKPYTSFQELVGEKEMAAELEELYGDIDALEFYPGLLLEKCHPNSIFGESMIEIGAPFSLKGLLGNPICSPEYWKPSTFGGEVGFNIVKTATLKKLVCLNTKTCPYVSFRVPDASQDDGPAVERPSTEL
# [2] = test system: cultured canine chondrocytes; experiment: PGE2 release in cultured canine chondrocytes challenged with IL1b; type: cell-based; settings: 100 μM, IL1b challenge, FIG. 3
# Method: The study involved the use of cultured canine chondrocytes (i.e., cells within the joint that are activated during OA). The canine chondrocytes were subjected to an inflammatory challenge in the form of cytokine Interleukin 1 beta (“IL1b”). The canine chondrocytes were then treated with various anti-inflammatory compounds including Alpha-GEE; glucosamine; a TNFα receptor antagonist; and a NSAID (Rimadyl). Alpha-GEE was administered in concentrations ranging from 10 μM to 1000 μM. The resulting effects of the various treatments on both PGE2 release and TNFα release were examined.
# Alpha-GEE, glucosamine, and Rimadyl were used in a concentration of 100 μM, while the TNFα inhibitor was used in a concentration of 1 μM. Based on all of the treatments examined (i.e., Alpha-GEE; glucosamine; NSAID (Rimadyl); and TNFα receptor antagonist), Alpha-GEE produced the most dramatic decrease in PGE2 at the early 4-hour time point. […] The reduction in PGE2 release at the early 4 hour time point was greater than that observed with the NSAID, Rimadyl, glucosamine, or TNFα receptor blocker. The maximal effect of Alpha-GEE on PGE2 release from chondrocytes was observed within 8 hours, where a 75% reduction in PGE2 release was observed.
# TLR-4 = experiment: TLR expression in exposed cells (real time PCR or immunofluorescent staining); type: cell-based
# Source text: (§1) In one embodiment, the anti-inflammatory agent may include ethyl (α-guanido-methyl) ethanoate (“Alpha-GEE”). […] Toll receptors act as a key part of our body's recognition mechanism and appear to be a major factor in the onset and/or progression of various medical indications including those that involve inflammation and pain. In particular, real time PCR or immunofluorescent staining of exposed cells was used to assess expression of toll-like receptor-2 (TLR-2), TLR-3, TLR-4, and TLR-7. […] Without being bound by any particular theory, the mechanism by which TLR expression seems to be altered involves decreased pro-inflammatory mediator production in the wake of exposure to Alpha-GEE.
# [3] = test system: toll-like receptor-2 (TLR-2); experiment: as above; type: cell-based
# Source text: as §1
# TLR-3 = experiment: as above; type: cell-based
# Source text: as §1
# TLR-7 = experiment: as above; type: cell-based
# Source text: as §1
substance,measurement,setting,value
ethyl (α-guanido-methyl) ethanoate [Alpha-GEE],"Creatinine, post-trial","[1]; mean ± SD after two weeks, pre-trial 1.2 ± 0.7, normal range 0.3-1.4",1.5 ± 0.7 mg/dL
same,"Total Protein, post-trial","[1]; mean ± SD after two weeks, pre-trial 6.6 ± 0.4, normal range 5.4-8.2",6.5 ± 0.4 g/dL
same,"BUN, post-trial","[1]; mean ± SD after two weeks, pre-trial 24 ± 22, normal range 7-25",24 ± 19 mg/dL
same,"ALT, post-trial","[1]; mean ± SD after two weeks, pre-trial 89 ± 99, normal range 10-118",53 ± 37 U/L
same,"Glucose, post-trial","[1]; mean ± SD after two weeks, pre-trial 102 ± 11, normal range 80-110",101 ± 11 mg/dL
same,"ALP, post-trial","[1]; mean ± SD after two weeks, pre-trial 110 ± 104, normal range 20-150",103 ± 131 U/L
same,change in post-trial blood chemistry profiles compared to pre-trial values,[1]; two-week trial,no significant changes
same,inhibition of COX-1 activity,cyclooxygenase-1 (COX-1); 0.1 μM,about 20%
same,inhibition of COX-1 activity,cyclooxygenase-1 (COX-1); 1 μM (first of three values printed for '1 μM and 100 μM'),about 20%
same,inhibition of COX-1 activity,cyclooxygenase-1 (COX-1); 100 μM (third of three values printed for '1 μM and 100 μM'),about 15%
same,concentration dependency of inhibition of COX-1,"cyclooxygenase-1 (COX-1); 0.1-100 μM, FIG. 2",did not show a concentration dependency
same,inhibition of COX-1 activity,cyclooxygenase-1 (COX-1); concentration not printed (second of three values printed for '1 μM and 100 μM'),about 15%
same,reduction in PGE2 release from canine chondrocytes,[2]; 4 hours,approximately 60%
same,reduction in PGE2 release from canine chondrocytes (maximal effect),[2]; within 8 hours,75%
same,expression of TLR-4 in cells,TLR-4,increases expression
same,expression of TLR-2 in cells,[3],increases expression
same,expression of TLR-3 in cells,TLR-3,increases expression
same,expression of TLR-7 in cells,TLR-7,increases expression
